Consider 25 compounds from patent US20060116400A1, “Oxazolidinone and/or isoxazoline derivatives as antibacterial agents” (AstraZeneca AB, priority 2002, published 2006).

The target of the first series is T1, MAO-A (Homo sapiens, UniProt P21397).
T1 sequence (P21397 1-527): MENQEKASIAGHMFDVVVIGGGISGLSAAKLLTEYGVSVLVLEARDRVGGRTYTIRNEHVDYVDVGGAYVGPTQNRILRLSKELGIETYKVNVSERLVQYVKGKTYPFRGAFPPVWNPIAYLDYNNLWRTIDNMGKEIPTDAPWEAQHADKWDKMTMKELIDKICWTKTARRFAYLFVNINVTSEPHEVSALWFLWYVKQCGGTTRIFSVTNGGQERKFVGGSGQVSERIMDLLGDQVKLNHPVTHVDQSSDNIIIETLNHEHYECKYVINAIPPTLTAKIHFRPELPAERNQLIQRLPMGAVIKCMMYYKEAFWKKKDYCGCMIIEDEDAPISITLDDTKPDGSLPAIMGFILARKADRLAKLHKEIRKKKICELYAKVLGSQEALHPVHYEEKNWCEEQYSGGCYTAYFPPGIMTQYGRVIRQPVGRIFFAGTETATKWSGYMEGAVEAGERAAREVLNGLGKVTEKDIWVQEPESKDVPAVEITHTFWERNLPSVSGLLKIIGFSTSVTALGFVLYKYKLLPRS
The series is described as follows: MAO-A inhibition (Ki). It counts as biochemical. To be noted: * = approximate values.
The compound `O=C1O[C@@H](Cn2ccnn2)CN1c1ccc(-c2ccc(C3=NO[C@H]([C@H](O)CO)C3)nc2)c(F)c1` [Example 51, (5R)-3-[4-(6-{(5S)-5-[(1R)-1,2-Dihydroxyethyl]-4,5-dihydroisoxazol-3-yl}pyridin-3-yl)-3-fluorophenyl]-5-(1H-1,2,3-triazol-1-ylmethyl)-1,3-oxazolidin-2-one] yielded an inhibitory constant (Ki) of roughly 60 µM. On to `O=C1O[C@@H](Cn2ccnn2)CN1c1ccc(-c2ccc(C3=NO[C@@H]([C@H](O)CO)C3)nc2)c(F)c1` [Example 52, (5R)-3-[4-(6-{(5R)-5-[(1R)-1,2-Dihydroxyethyl]-4,5-dihydroisoxazol-3-yl}pyridin-3-yl)-3-fluorophenyl]-5-(1H-1,2,3-triazol-ylmethyl)-1,3-oxazolidin-2-one], for which the Ki is roughly 35 µM.

Compound `O=C1O[C@@H](Cn2ccnn2)CN1c1ccc(-c2ccc(C3=NO[C@H]([C@@H](O)CO)C3)nc2)c(F)c1` [Example 53, (5R)-3-[4-(6-{(5S)-[(1S)-1,2-Dihydroxyethyl]-4,5-dihydroisoxazol-3-yl}pyridin-3-yl)-3-fluorophenyl]-5-(1H-1,2,3-triazol-1-ylmethyl)-1,3-oxazolidin-2-one] showed a Ki of 60 µM.

System in a further series: not given
Experiment: not given
Details: not given
For the compound `O=C1O[C@@H](Cn2ccnn2)CN1c1ccc(-c2ccc(C3=NOC(C(O)c4ccccc4)C3)nc2)c(F)c1` (single isomer, unassigned) [Example 26], the melting point amounted to 182 °C. The same measure, in the same setting: the value for `CC(C)C(OC(=O)Cc1ccc2ccccc2c1)C1CC(c2ccc(-c3ccc(N4C[C@H](Cn5ccnn5)OC4=O)cc3F)cn2)=NO1` (single isomer, unassigned) [Example 30] was 85 °C.

`CC(C)C(O)C1CC(c2ccc(-c3ccc(N4C[C@H](Cn5ccnn5)OC4=O)cc3F)cn2)=NO1` (single isomer, unassigned) [Example 32] displayed a melting point of 155 °C. Turning to `CC(C)(O)C1CC(c2ccc(-c3ccc(N4C[C@H](Cn5ccnn5)OC4=O)cc3F)cn2)=NO1` (stereo partly drawn) [Example 15, (5R)-3-(3-Fluoro-4-{6-[5-(1-hydroxy-1-methylethyl)-4,5-dihydroisoxazol-3-yl]pyridin-3-yl}phenyl)-5-(1H-1,2,3-triazol-1-ylmethyl)-1,3-oxazolidin-2-one], the melting point was 197 °C. The same measure, in the same setting: the result for `CC(C)(C)OC(=O)C1CC(c2ccc(-c3ccc(N4C[C@H](Cn5ccnn5)OC4=O)cc3F)cn2)=NO1` (stereo partly shown) [Example 21] reads 165 to 168 °C; that for `O=C(O)C1CC(c2ccc(-c3ccc(N4C[C@H](Cn5ccnn5)OC4=O)cc3F)cn2)=NO1` (stereo partly drawn) [Example 22, 3-(5-{2-Fluoro-4-[(5R)-2-oxo-5-(1H-1,2,3-triazol-1-ylmethyl)-1,3-oxazolidin-3-yl]phenyl}pyridin-2-yl)-4,5-dihydroisoxazole-5-carboxylic acid], 190 to 194 °C. Same read-out and setting: the result for `CN(C)C(=O)C1CC(c2ccc(-c3ccc(N4C[C@H](Cn5ccnn5)OC4=O)cc3F)cn2)=NO1` (stereo partly drawn) [Example 23, 3-(5-{2-Fluoro-4-[(5R)-2-oxo-5-(1H-1,2,3-triazol-1-ylmethyl)-1,3-oxazolidin-3-yl]phenyl}pyridin-2-yl)-N,N-dimethyl-4,5-dihydroisoxazole-5-carboxamide] reads 180 to 190 °C; that for `CNC(=O)C1CC(c2ccc(-c3ccc(N4C[C@H](Cn5ccnn5)OC4=O)cc3F)cn2)=NO1` (stereo partly drawn) [Example 24, 3-(5-{2-Fluoro-4-[(5R)-2-oxo-5-(1H-1,2,3-triazol-1-ylmethyl)-1,3-oxazolidin-3-yl]phenyl}pyridin-2-yl)-N-methyl-4,5-dihydroisoxazole-5-carboxamide], 185 to 195 °C; that for `O=C1O[C@@H](Cn2ccnn2)CN1c1ccc(-c2ccc(C3=NOC(CS(=O)(=O)CCO)C3)nc2)c(F)c1` (stereo partly drawn) [Example 25, (5R)-3-{3-Fluoro-4-[6-(5-{[(2-hydroxyethyl)sulfonyl]methyl}-4,5-dihydroisoxazol-3-yl)pyridin-3-yl]phenyl}-5-(1H-1,2,3-triazol-1-ylmethyl)-1,3-oxazolidin-2-one], 210 °C. On the same count and under the same terms, the result for `O=C1O[C@@H](Cn2ccnn2)CN1c1ccc(-c2ccc(C3=NOC(C4(O)CCCC4)C3)nc2)c(F)c1` (stereo partly drawn) [Example 28, (5R)-3-(3-Fluoro-4-{6-[5-(1-hydroxycyclopentyl)-4,5-dihydroisoxazol-3-yl]pyridin-3-yl}phenyl)-5-(1H-1,2,3-triazol-1-ylmethyl)-1,3-oxazolidin-2-one] reads 225 °C; that for `O=C1O[C@@H](Cn2ccnn2)CN1c1ccc(-c2ccc(C3=NOC(CNCCc4ccncc4)C3)nc2)c(F)c1` (stereo partly drawn) [Example 33, (5R)-3-{3-Fluoro-4-[6-(5-{[(2-pyridin-4-ylethyl)amino]methyl}-4,5-dihydroisoxazol-3-yl)pyridin-3-yl]phenyl}-5-(1H-1,2,3-triazol-1-ylmethyl)-1,3-oxazolidin-2-one], 181 °C; that for `CN1CCC(O)(C2CC(c3ccc(-c4ccc(N5C[C@H](Cn6ccnn6)OC5=O)cc4F)cn3)=NO2)CC1` (stereo partly drawn) [Example 34, (5R)-3-(3-Fluoro-4-{6-[5-(4-hydroxy-1-methylpiperidin-4-yl)-4,5-dihydroisoxazol-3-yl]pyridin-3-yl}phenyl)-5-(1H-1,2,3-triazol-1-ylmethyl)-1,3-oxazolidin-2-one], 73 °C. In turn, `O=C1O[C@@H](Cn2ccnn2)CN1c1ccc(-c2ccc(C3=NOC(CS(=O)(=O)CCc4ccncc4)C3)nc2)c(F)c1` (stereo partly drawn) [Example 35, (5R)-3-{3-Fluoro-4-[6-(5-{[(2-pyridin-4-ylethyl)sulfonyl]methyl}-4,5-dihydroisoxazol-3-yl)pyridin-3-yl]phenyl}-5-(1H-1,2,3-triazol-1-ylmethyl)-1,3-oxazolidin-2-one] yielded a melting point of 195 °C. As for `CCN(CC)CCC(=O)OC[C@@H]1CC(c2ccc(-c3ccc(N4C[C@H](Cn5ccnn5)OC4=O)cc3F)cn2)=NO1` [Example 43, [(5S)-3-(5-{2-Fluoro-4-[(5R)-2-oxo-5-(1H-1,2,3-triazol-1-ylmethyl)-1,3-oxazolidin-3-yl]phenyl}pyridin-2-yl)-4,5-dihydroisoxazol-5-yl]methyl N,N-diethyl-β-alaninate], the melting point was determined as 167 °C.

Turning to `COCCC(=O)OC[C@@H](O)[C@@H]1CC(c2ccc(-c3ccc(N4C[C@H](Cn5ccnn5)OC4=O)cc3F)cn2)=NO1` [Example 56, (2R)-2-[(5S)-3-(5-{2-Fluoro-4-[(5R)-2-oxo-5-(1H-1,2,3-triazol-1-ylmethyl)-1,3-oxazolidin-3-yl]phenyl}pyridin-2-yl)-4,5-dihydroisoxazol-5-yl]-2-hydroxyethyl 3-methoxypropanoate], the melting point stood at 130 °C. On the same count and under the same terms, the result for `O=C(OC[C@@H](O)[C@@H]1CC(c2ccc(-c3ccc(N4C[C@H](Cn5ccnn5)OC4=O)cc3F)cn2)=NO1)c1cccnc1` [Example 57, (2R)-2-[(5S)-3-(5-{2-Fluoro-4-[(5R)-2-oxo-5-(1H-1,2,3-triazol-1-ylmethyl)-1,3-oxazolidin-3-yl]phenyl}pyridin-2-yl)-4,5-dihydroisoxazol-5-yl]-2-hydroxyethyl nicotinate] reads 210 °C.

Take `COCCOC(=O)OC[C@@H](O)[C@@H]1CC(c2ccc(-c3ccc(N4C[C@H](Cn5ccnn5)OC4=O)cc3F)cn2)=NO1` [Example 58, (2R)-2-[(5S)-3-(5-{2-Fluoro-4-[(5R)-2-oxo-5-(1H-1,2,3-triazol-1-ylmethyl)-1,3-oxazolidin-3-yl]phenyl}pyridin-2-yl)-4,5-dihydroisoxazol-5-yl]-2-hydroxyethyl 2-methoxyethyl carbonate]: the melting point is 125 °C.

Consider `N.N.N.N.O=C1O[C@@H](Cn2ccnn2)CN1c1ccc(-c2ccc(C3=NO[C@H]([C@@H](COP(=O)(O)O)OP(=O)(O)O)C3)nc2)c(F)c1` [Example 59, Phosphoric acid mono-(1R)-[(5R)-2-(3-{(5S)-[2-fluoro-4-(2-oxo-5-[1,2,3]triazol-1-ylmethyl-oxazolidin-3-yl)-phenyl]-pyridin-2-yl}-4,5-dihydro-isoxazol-5-yl)-2-phosphonooxy-ethyl]ester, tetrakis ammonium salt], for which the melting point was 175 to 180 °C (dec.). Still for that read-out and setting: the value for `O=C1O[C@@H](Cn2ccnn2)CN1c1ccc(-c2ccc(C3=NO[C@H](CSCCO)C3)nc2)c(F)c1` [Example 60, (5R)-3-{3-Fluoro-4-[6-((5S)-5-{[(2-hydroxyethyl)thio]methyl}-4,5-dihydroisoxazol-3-yl)pyridin-3-yl]phenyl}-5-(1H-1,2,3-triazol-1-ylmethyl)-1,3-oxazolidin-2-one] was 162 °C; that for `O=C1O[C@@H](Cn2ccnn2)CN1c1ccc(-c2ccc(C3=NO[C@H](COC(F)(F)F)C3)nc2)c(F)c1` [Example 61] was 185 °C; that for `O=C1O[C@@H](Cn2ccnn2)CN1c1ccc(-c2ccc(C3=NO[C@H](COCC(F)(F)F)C3)nc2)c(F)c1` [Example 62] was 199 °C. Compound `COC[C@@H]1CC(c2ccc(-c3ccc(N4C[C@H](Cn5ccnn5)OC4=O)cc3F)cn2)=NO1` [Example 64, (5R)-3-(3-Fluoro-4-{6-[(5S)-5-(methoxymethyl)-4,5-dihydroisoxazol-3-yl]pyridin-3-yl}phenyl)-5-(1H-1,2,3-triazol-1-ylmethyl)-1,3-oxazolidin-2-one] had a melting point of 172 °C.
